Test results as given in the NIST ThermoML archive (doi:10.1016/j.jct.2014.02.019).
Numbers after ± are expanded uncertainties.

What was measured:
[1] = 101 kPa, Liquid; for viscosity: Capillary tube (Ostwald / Ubbelohde) method; for mass density: Vibrating tube method
[2] = wn = mass fraction of the nth substance listed; conditions: 101 kPa, Liquid; for viscosity: Capillary tube (Ostwald / Ubbelohde) method; for mass density: Vibrating tube method

## CC#N [acetonitrile]
[1]; 298.15 K
  viscosity: 0.342 ± 0.011 mPa·s
  mass density: 776.47 ± 1.6 kg/m3
[1]; 303.15 K
  viscosity: 0.3269 ± 0.01 mPa·s
  mass density: 771.56 ± 1.6 kg/m3
[1]; 308.15 K
  viscosity: 0.3092 ± 0.0097 mPa·s
  mass density: 765.26 ± 1.6 kg/m3
[1]; 313.15 K
  viscosity: 0.2929 ± 0.0092 mPa·s
  mass density: 759.55 ± 1.5 kg/m3

## CC#N [acetonitrile] + CN(C)C=O
[2]; 298.15 K, w2 = 0
  viscosity: 0.342 ± 0.011 mPa·s
  mass density: 776.47 ± 1.6 kg/m3
[2]; 298.15 K, w2 = 0.25
  viscosity: 0.3959 ± 0.012 mPa·s
  mass density: 816.75 ± 1.6 kg/m3
[2]; 298.15 K, w2 = 0.5
  viscosity: 0.5214 ± 0.016 mPa·s
  mass density: 856.92 ± 1.7 kg/m3
[2]; 298.15 K, w2 = 0.75
  viscosity: 0.6465 ± 0.02 mPa·s
  mass density: 900.14 ± 1.8 kg/m3
[2]; 303.15 K, w2 = 0
  viscosity: 0.3269 ± 0.01 mPa·s
  mass density: 771.56 ± 1.6 kg/m3
[2]; 303.15 K, w2 = 0.25
  viscosity: 0.3598 ± 0.011 mPa·s
  mass density: 811.82 ± 1.6 kg/m3
[2]; 303.15 K, w2 = 0.5
  viscosity: 0.46 ± 0.014 mPa·s
  mass density: 852.67 ± 1.7 kg/m3
[2]; 303.15 K, w2 = 0.75
  viscosity: 0.6145 ± 0.019 mPa·s
  mass density: 895.46 ± 1.8 kg/m3
[2]; 308.15 K, w2 = 0
  viscosity: 0.3092 ± 0.0097 mPa·s
  mass density: 765.26 ± 1.6 kg/m3
[2]; 308.15 K, w2 = 0.25
  viscosity: 0.3417 ± 0.011 mPa·s
  mass density: 806.58 ± 1.6 kg/m3
[2]; 308.15 K, w2 = 0.5
  viscosity: 0.434 ± 0.013 mPa·s
  mass density: 847.38 ± 1.7 kg/m3
[2]; 308.15 K, w2 = 0.75
  viscosity: 0.5816 ± 0.018 mPa·s
  mass density: 890.88 ± 1.8 kg/m3
[2]; 313.15 K, w2 = 0
  viscosity: 0.2929 ± 0.0092 mPa·s
  mass density: 759.55 ± 1.5 kg/m3
[2]; 313.15 K, w2 = 0.25
  viscosity: 0.3262 ± 0.01 mPa·s
  mass density: 801.83 ± 1.6 kg/m3
[2]; 313.15 K, w2 = 0.5
  viscosity: 0.4038 ± 0.013 mPa·s
  mass density: 842.57 ± 1.7 kg/m3
[2]; 313.15 K, w2 = 0.75
  viscosity: 0.5524 ± 0.017 mPa·s
  mass density: 886.23 ± 1.8 kg/m3

## CN(C)C=O [dimethylformamide]
[1]; 298.15 K
  viscosity: 0.7986 ± 0.024 mPa·s
  mass density: 944.65 ± 1.9 kg/m3
[1]; 303.15 K
  viscosity: 0.755 ± 0.023 mPa·s
  mass density: 940.05 ± 1.9 kg/m3
[1]; 308.15 K
  viscosity: 0.7069 ± 0.022 mPa·s
  mass density: 935.71 ± 1.9 kg/m3
[1]; 313.15 K
  viscosity: 0.6716 ± 0.021 mPa·s
  mass density: 929.91 ± 1.9 kg/m3

## CN(C)C=O [dimethylformamide] + CC#N
[2]; 298.15 K, w1 = 1
  viscosity: 0.7986 ± 0.024 mPa·s
  mass density: 944.65 ± 1.9 kg/m3
[2]; 303.15 K, w1 = 1
  viscosity: 0.755 ± 0.023 mPa·s
  mass density: 940.05 ± 1.9 kg/m3
[2]; 308.15 K, w1 = 1
  viscosity: 0.7069 ± 0.022 mPa·s
  mass density: 935.71 ± 1.9 kg/m3
[2]; 313.15 K, w1 = 1
  viscosity: 0.6716 ± 0.021 mPa·s
  mass density: 929.91 ± 1.9 kg/m3
